# Read-outs that look alike come from different tables or passages of the source.
# Experiments:
# [1] = Median particle size of nebulized test drug solutions; type: physicochemical
# Method: 1. Genipin-1-β-D gentiobioside 75 mg/ml group, median particle size is 2.02±0.06 μm; Genipin-1-β-D gentiobioside 37.5 mg/ml group, median particle size is 2.12±0.08 μm; Genipin-1-β-D gentiobioside […] group, median particle size is 2.01±0.09 μm; and Genipin-1-β-D gentiobioside 9.375 mg/ml group, median particle size is 2.07±0.06 μm. The nebulization time for each group is 25 minutes.
# [2] = test system: Human Coronavirus OC43 (HCoV-OC43); type: in vivo; conditions: 4 days
# [3] = test system: Lipopolysaccharide (LPS)-induced pneumonia model in mice; assay: LPS-induced pneumonia model in mice, intravenous injection: lung index; type: in vivo, ICR mice; conditions: for Lung Index: 6 h after LPS
# Method: (§1) Sixty healthy mice, weighing 18˜20 g, half male and half female, were selected and randomly grouped after stratification by weight; they were divided into a normal control group, a model control group, three Genipin-1-β-D-gentiobioside dose groups (150 mg/kg/d, 75 mg/kg/d, 37.5 mg/kg/d), and a positive control drug Sivelestat Sodium 50 mg/kg/d group, with 10 mice in each group, half male and half female. After grouping, each treatment group was administered intravenously at 20 ml/kg once daily for 2 consecutive days, while the normal control group and model control group were injected with physiological saline. One hour after the second dose, except for the normal control group, the other groups were lightly anesthetized with isoflurane, and a 20 mg/ml LPS physiological saline solution was administered intranasally to the mice at 0.05 ml/mouse to induce the pneumonia model. Six hours after infection, the animals were sacrificed, dissected, and their lungs were removed and weighed to calculate the lung index (lung index=lung weight/body weight×100%).
# [4] = test system: Mycoplasma Pneumoniae (MP); assay: Mycoplasma pneumoniae-infected mouse pneumonia model: lung index; type: in vivo, BALB/C mice; parameters: First Batch Inhibition Rate: unit not given here; conditions: 4 days
# [5] = test system: Lipopolysaccharide (LPS)-induced pneumonia model in mice; assay: Inflammatory factors in lung tissue of LPS-induced pneumonia mice (ELISA); type: in vivo, ICR mice; conditions: i.v.
# Method: as §1
# (1) Sample Collection and Storage: Tissue homogenate samples: The lung tissues of mice were collected and weighed, including those from mice numbered 1, 2, 3, 6, 7, and 8 in each group. The tissues were stored at […] An ultrasonic cell disruptor was used to homogenize the tissues, followed by centrifugation at […] and 1000 r/min for 10 minutes using a low-temperature high-speed centrifuge. The supernatant was then collected, aliquoted, and stored at −80° C. for future use, avoiding repeated freeze-thaw cycles.
# (2) The microwell plate, which had been equilibrated to room temperature, was removed from the sealed bag. Different concentrations of standards, experimental samples, or quality control samples were added to the corresponding wells, with 100 μL per well. The reaction wells were sealed with sealing tape and incubated at room temperature for 2 hours. The plate was then washed with wash buffer, repeating the operation four times. After the final wash, the plate was inverted and all residual liquid was patted dry on absorbent paper. Next, 100 μL of enzyme-labeled detection antibody was added to each microwell. The reaction wells were sealed again with sealing tape and incubated at room temperature for another 2 hours. The washing step was repeated as described above. Then, 100 μL of substrate solution was added to each microwell and incubated at room temperature for 30 minutes, protected from light. Within 30 minutes after adding 100 μL of stop solution to each microwell, the absorbance at 450 nm was measured using a microplate reader. The results were then calculated.
# SARS-CoV-2 = assay: Protective effect against death in SARS-CoV-2 infected mice; type: in vivo, hACE2 transgenic C57BL/6 mice; conditions: for Number of Survivors / Number of Deaths: 8 mice; for Number of Deaths: 5-day
# Method: 1.1 Test Drug: Genipin-1-β-D-gentiobioside. […] Dosage for mice: 37.5 mg/kg and 75 mg/kg, administered by intraperitoneal injection once daily for 5 consecutive days.
# 1.2 Experimental Animals: human angiotensin-converting enzyme 2 (hACE2) transgenic C57BL/6 mice, aged 6˜7 weeks, weighing 18˜25 g, a total of 32 mice provided by GemPharmatech Co., Ltd., with a license number of SCXK (Su) 2018-008.
# 2.1 Grouping and Drug Administration: hACE2 transgenic C57BL/6 mice were divided into four groups, namely the blank control group, the SARS-CoV-2 infection group, the Genipin-1-β-D-gentiobioside (37.5 mg/kg) treatment group, and the Genipin-1-β-D-gentiobioside (75 mg/kg) treatment group, with 8 mice in each group. Except for the normal group, which received intranasal administration of Phosphate Buffered Saline (PBS), the other groups were infected with 10^4 Plaque Forming Unit (PFU) of Severe Acute Respiratory Syndrome Coronavirus 2 (SARS-CoV-2) virus via intranasal instillation. Two hours' post-infection, the treatment groups received intraperitoneal injections of the drug once daily for 5 consecutive days. Mouse deaths were recorded daily after infection, and the 5-day mortality rate was calculated. At the end of the experiment, the lung tissues were collected and homogenized for virus titer detection.
# [6] = test system: Human Coronavirus 229E (HCoV-229E); type: in vivo
# [7] = 37.5 mg/kg i.v. once daily 2 days
# [8] = 75 mg/kg i.v. once daily 2 days
# [9] = 150 mg/kg i.v. once daily 2 days
# [10] = 37.5 mg/kg intraperitoneal once daily 5 days
# [11] = 75 mg/kg intraperitoneal once daily 5 days
smiles,measurement,setting,value
COC(=O)C1=CO[C@@H](O[C@@H]2O[C@H](CO[C@@H]3O[C@H](CO)[C@@H](O)[C@H](O)[C@H]3O)[C@@H](O)[C@H](O)[C@H]2O)[C@@H]2C(CO)=CC[C@H]12 [Genipin-1-β-D-gentiobioside],Median particle size,[1]; 9.375 mg/ml group,2.07±0.06 μm
same,Median particle size,[1]; 18.755 mg/ml group,2.01±0.09 μm
same,Median particle size,[1]; 37.5 mg/ml group,2.12±0.08 μm
same,Median particle size,[1]; 75 mg/ml group,2.02±0.06 μm
same,Inhibition Rate (lung index),[2]; 9.375 mg/ml inhalation 25 min,49.42%
same,Lung Index,[2]; 9.375 mg/ml inhalation 25 min,0.79 ± 0.09 g lung weight × 100 g/body weight
same,Inhibition Rate (lung index),[2]; 18.75 mg/ml inhalation 25 min,75.73%
same,Lung Index,[2]; 18.75 mg/ml inhalation 25 min,0.76 ± 0.04 g lung weight × 100 g/body weight
same,Inhibition Rate (lung index),[2]; 37.5 mg/ml inhalation 25 min,90.30%
same,Lung Index,[2]; 37.5 mg/ml inhalation 25 min,0.74 ± 0.08 g lung weight × 100 g/body weight
same,Inhibition Rate (lung index),[2]; 75 mg/ml inhalation 25 min,102.88%
same,Lung Index,[2]; 75 mg/ml inhalation 25 min,0.72 ± 0.05 g lung weight × 100 g/body weight
same,Inhibition Rate (lung index),[3]; [7],48.85
same,Lung Index,[3]; [7],0.91 ± 0.09 g/100 g body weight
same,Inhibition Rate (lung index),[3]; [8],94.65
same,Lung Index,[3]; [8],0.85 ± 0.14 g/100 g body weight
same,Inhibition Rate (lung index),[3]; [9],77.10
same,Lung Index,[3]; [9],0.87 ± 0.01 g/100 g body weight
same,First Batch Inhibition Rate,[4]; 37.5 mg/ml inhalation 15 min,73.01
same,First Batch Lung Index,[4]; 37.5 mg/ml inhalation 15 min,0.76 ± 0.09
same,Second Batch Inhibition Rate,[4]; 37.5 mg/ml inhalation 15 min,56.34
same,Second Batch Lung Index,[4]; 37.5 mg/ml inhalation 15 min,0.68 ± 0.08
same,First Batch Inhibition Rate,[4]; 75 mg/ml inhalation 15 min,93.06
same,First Batch Lung Index,[4]; 75 mg/ml inhalation 15 min,0.72 ± 0.05
same,Second Batch Inhibition Rate,[4]; 75 mg/ml inhalation 15 min,64.09
same,Second Batch Lung Index,[4]; 75 mg/ml inhalation 15 min,0.67 ± 0.07
same,Inflammatory Factor Levels in Lung Tissue IL-6,[5]; dosage 37.5 (mg/ml),16.53 ± 1.91 pg/mL
same,Inflammatory Factor Levels in Lung Tissue IL-10,[5]; dosage 37.5 (mg/ml),39.00 ± 8.37 pg/mL
same,Inflammatory Factor Levels in Lung Tissue TNF-α,[5]; dosage 37.5 (mg/ml),106.13 ± 15.70 pg/mL
same,Inflammatory Factor Levels in Lung Tissue IL-6,[5]; dosage 75 (mg/ml),17.72 ± 2.15 pg/mL
same,Inflammatory Factor Levels in Lung Tissue IL-10,[5]; dosage 75 (mg/ml),35.75 ± 6.74 pg/mL
same,Inflammatory Factor Levels in Lung Tissue TNF-α,[5]; dosage 75 (mg/ml),119.71 ± 19.76 pg/mL
same,Inflammatory Factor Levels in Lung Tissue IL-6,[5]; dosage 150 (mg/ml),16.63 ± 2.19 pg/mL
same,Inflammatory Factor Levels in Lung Tissue IL-10,[5]; dosage 150 (mg/ml),36.00 ± 5.14 pg/mL
same,Inflammatory Factor Levels in Lung Tissue TNF-α,[5]; dosage 150 (mg/ml),100.25 ± 12.41 pg/mL
same,Death Rate,SARS-CoV-2; [10],37.5%
same,Survival Rate,SARS-CoV-2; [10],62.5%
same,Number of Survivors,SARS-CoV-2; [10],5
same,Number of Deaths,SARS-CoV-2; [10],3
same,Death Rate,SARS-CoV-2; [11],25%
same,Survival Rate,SARS-CoV-2; [11],75%
same,Number of Survivors,SARS-CoV-2; [11],6
same,Number of Deaths,SARS-CoV-2; [11],2
same,Inhibition Rate (lung index),[6]; 37.5 mg/kg/d i.v. 4 days,75.12%
same,Lung Index,[6]; 37.5 mg/kg/d i.v. 4 days,0.95 ± 0.11 g lung weight × 100 g/body weight
same,Inhibition Rate (lung index),[6]; 75 mg/kg/d i.v. 4 days,71.04%
same,Lung Index,[6]; 75 mg/kg/d i.v. 4 days,0.96 ± 0.12 g lung weight × 100 g/body weight
same,Inhibition Rate (lung index),[6]; 150 mg/kg/d i.v. 4 days,99.06%
same,Lung Index,[6]; 150 mg/kg/d i.v. 4 days,0.89 ± 0.06 g lung weight × 100 g/body weight

# — patent publication US20250195553A1, “Use of Genipin-1-B-D-Gentiobioside in Preparation of Drug” (Guizhou Bailing Group Pharmaceutical Co., Ltd., priority 2023, published 2025)
